# Measurements published in patent US11944702B2, “Skin care composition and method of making a skin care composition” (L'OREAL, priority 2017, dated 2024).
# Experiment: Stability of mixed skin care composition (base + booster compositions)
# Assay type: physicochemical
# Settings: combination results in incompatible pH and separation of phases
# Protocol: Referring again to FIG. 2, after the ingredient is determined, a compatibility profile is determined corresponding to the previously selected ingredients (step 207). The compatibility profile includes an inclusion or exclusion of additional ingredients to the formulation. That is, the compatibility profile provides acceptable combinations of booster composition and base composition combinations made with the previously selected ingredients that forms stable and efficacious skin care compositions. […] “Stable”, “Stability” and grammatical variations thereof, indicate a macroscopic homogeneous substance that doesn't have variation in texture or varying phases physically noticeable. In addition, microscopically the emulsion of the composition has the appearance of being homogeneous with the droplets and no dynamic changes in the microscope image. […] In addition, compatibility may include ingredients that retain efficacy of individual ingredients when combined with the other ingredients remain present in the formula over time periods and exposures to varying temperature.
# Examples and comparative examples below are provided by the cosmetic dispending system as shown and described above. TABLE 3 includes the composition of Base B, the hydroalcoholic base, according to an embodiment of the disclosure.
compound,measurement,value
CC1=C(/C=C/C(C)=C/C=C/C(C)=C/CO)C(C)(C)CCC1 [retinol],compatibility with hydroalcoholic base,not compatible
